Test results as given in article PMC5522267, “Targeting PEPT1: a novel strategy to improve the antitumor efficacy of doxorubicin in human hepatocellular carcinoma therapy” (Oncotarget, 2017).
Structures can show the parent of a compound that is named as a salt. Where two headings read alike, the source gives them in different places. Marks after values point to notes of the source that are not given here.

Tests used:
[1] = HCC mice, both dose groups
Procedure: After the HCC mice model was established, the nude mice were randomly assigned to three groups: Group A (control group: administration with normal saline 0.2 ml every time), group B (administration with Doxorubicin-tripeptide conjugate) and group C (administration with Doxorubicin). […] Treatment was conducted every 3 weeks for 5 weeks. Pay close attention to the general condition of the mice and their subcutaneous tumor and draw survivorship curve. The mice were weighed every 3 days and tumor volume was measured with a digital caliper using the formula: volume = (1/6).π. length × width × height. At the end of the experiment, tumor weight and volume was measured to obtained the tumor inhibitory rate and actual volume, which were calculated by the follow formula respectively: tumor inhibitory rate = (The average tumor weight of control group-experimental group)/control group × 100 %. volume = (1/6).π. length × width × height.
After the course of administration, mice were sacrificed, then the blood was collected to detect relevant indexes including quantitative serum protein, blood routine, myocardial enzymes (CK, CK-MB, LDH, AST), GSH-PX, MDA and SOD, the bone marrow taken to make bone marrow smear. What's more, the tumor, liver, jejunum and heart tissue of mice were dissected firstly for Small Animal Imaging (KODAK IS in-vivo FX, Kodak), and secondly were placed in the 10% Formaldehyde solution to prepare paraffin section, HE staining for histological examination. […] The tests of CK, CK-MB, LDH, AST, GSH-PX, MDA and SOD were completed in accordance with instructions strictly (Jiancheng Bioengineering Institute, Nanjing, China).

HepG2 [2] = experiment: Drug concentration in tumor cells by HPLC, HepG2; type: cell-based, human; details: incubated 2 hours
Procedure: (§1) When the density of HCC cells reached to 3 × 10^6/ml, they were trypsinized and centrifuge (4°C, 800rpm, 5min), then discarded the supernatant, dropping medium 3 ml and evenly mixed. Cell suspension was divided into three groups (control group, Doxorubicin-tripeptide conjugate group and Doxorubicin group). The drug concentration was 0.01 mg/ml for cultured 2 hours avoiding light. Then the cells obtained by centrifugation were proceeded by the following steps: washed 3 times with 1 ml normal saline, added 0.5 ml ultra pure water (Millipore), broken by ultrasonic wave, drooped in acetonitrile (Tianjin Concord Technology Co. Ltd, China) 0.5 ml, mixed, ultrasonic oscillation for 10 mins, centrifuge (1200 rpm, 15 min), take the supernatant, filtration with filter membrane, take 20 μl for HPLC analysis (Agilent 1100 HPLC system, USA).
(§2) Chromatographic conditions were as follows: chromatographic column: DIONEX Acclaim 120 C18 (2.1 × 250 mm, 5 μm 120A), Mobile phase: Acetonitrile-0.2%NaH2PO4 aqueous solution (35: 65), Velocity: 0.35 ml/min, column temperature: 30°C, DAD, 254 nm, sample size: 20 μl. […] According to the chromatographic condition, the retention time (tR), peak position time, chromatographic behavior, resolution (R), the minimum detectable concentration and the intracellular drug concentration of these two drugs were detected in turn.

Bel-7402 [3] = experiment: Drug concentration in tumor cells by HPLC, Bel-7402; type: cell-based, human; details: incubated 2 hours
Procedure: as §1, §2

Bel-7402 [4] = experiment: cells; type: cell-based, human; details: Homo sapiens
Procedure: (§3) Cells in the growth log phase were seeded in 96-well plate (200 ul/well) with density 8×10^3/well for 24 hours, then the drugs were added. The concentration of Doxorubicin-tripeptide conjugate was 0.005 mg/ml, 0.01 mg/ml, 0.02 mg/ml, 0.04 mg/ml, 0.06 mg/ml in turn, while Doxorubicin followed by 0.005 mg/ml, 0.01 mg/ml, 0.02 mg/ml, 0.04 mg/ml, 0.06 mg/ml with a same dosing volume 100 μl. Each concentration group included five equal wells and was provided with a control well of medium alone as a negative control. Add 20 μl of MTT Reagent ( 5 mg/ml, Sigma) to each well, including controls and continue to be incubated at 37°C for 4 hours. Remove the supernatant, drop plus DMSO (200 μl/well) and measure the OD value in each well, including the blanks, at 490 nm by a Multi-Mode Reader (BioTek, Synergy 2, USA). To calculate the inhibitory rate and the half maximal inhibitory concentration (IC50) according to the formula: Inhibitory rate =(1-( the dosing group OD/the control group OD )) × 100%, IC50 = lg^-1 (Xm-i (ΣP-0.5)) (Xm: the logarithm of maximum concentration, I: the logarithm of maximum dose/ adjacent dose, P: the sum of each group inhibitory rate, Pm: the maximum inhibitory rate, Pn: the minimum inhibitory rate ).

Caco2 [5] = experiment: cells; type: cell-based, human; details: Homo sapiens, Caco-2
Procedure: as §3

HepG2 [6] = experiment: cells; type: cell-based, human; details: Homo sapiens, HepG2, given as fraction, read-out: Inhibitory effect by MTT
Procedure: as §3

Caco2 [7] = experiment: Drug concentration in tumor cells by HPLC, Caco2; type: cell-based, human; details: incubated 2 hours
[8] = Cardiac indexes, HepG2 HCC mice; type: in vivo, nude mice; details: low dose, after treatment
[9] = Blood routine, HepG2 HCC mice; type: in vivo, nude mice; details: low dose, after treatment
HepG2 HCC = system: HepG2 HCC
Source text: (§4) An animal model of HCC cells (Bel-7402, HepG2) transplanted into nude mice was established according to the method described in ref. 10.

Bel-7402 HCC = details: for Inhibition rate: from tumor weight vs control
Source text: as §4

[10] = Blood routine, Bel-7402 HCC mice; type: in vivo, nude mice; details: high dose, after treatment

COc1cccc2c1C(=O)c1c(O)c3c(c(O)c1C2=O)C[C@@](O)(C(=O)CO)C[C@@H]3O[C@H]1C[C@H](N)[C@H](O)[C@H](C)O1 [Doxorubicin, Doxorubicin hydrochloride]
change of mice weight during treatment [1]: the most significant | drug concentration in tumor cells (HepG2 [2]): 2320 ± 30 ng/mL | drug concentration in tumor cells (Bel-7402 [3]): 2420 ± 30 ng/mL | IC50 (Bel-7402 [4]; Bel-7402, MTT, read-out: IC50): 13.8 µg/mL | inhibition at 5 µg/mL (Bel-7402 [4]; Bel-7402, drug 0.005 mg/ml, given as fraction, read-out: Inhibitory effect by MTT): 38.8% | inhibition at 10 µg/mL (Bel-7402 [4]; Bel-7402, drug 0.01 mg/ml, given as fraction, read-out: Inhibitory effect by MTT): 49.1% | inhibition at 20 µg/mL (Bel-7402 [4]; Bel-7402, drug 0.02 mg/ml, given as fraction, read-out: Inhibitory effect by MTT): 61.2% | inhibition at 40 µg/mL (Bel-7402 [4]; Bel-7402, drug 0.04 mg/ml, given as fraction, read-out: Inhibitory effect by MTT): 70% | inhibition at 80 µg/mL (Bel-7402 [4]; Bel-7402, drug 0.08 mg/ml, given as fraction, read-out: Inhibitory effect by MTT): 79.8% | IC50 (Caco2 [5]; Caco2, MTT, read-out: IC50): 15.4 µg/mL | inhibition at 5 µg/mL (Caco2 [5]; Caco2, drug 0.005 mg/ml, given as fraction, read-out: Inhibitory effect by MTT): 34.6% | inhibition at 10 µg/mL (Caco2 [5]; Caco2, drug 0.01 mg/ml, given as fraction, read-out: Inhibitory effect by MTT): 50% | inhibition at 20 µg/mL (Caco2 [5]; Caco2, drug 0.02 mg/ml, given as fraction, read-out: Inhibitory effect by MTT): 57.9% | inhibition at 40 µg/mL (Caco2 [5]; Caco2, drug 0.04 mg/ml, given as fraction, read-out: Inhibitory effect by MTT): 62.3% | inhibition at 80 µg/mL (Caco2 [5]; Caco2, drug 0.08 mg/ml, given as fraction, read-out: Inhibitory effect by MTT): 78.9% | inhibition at 5 µg/mL (HepG2 [6]; drug 0.005 mg/ml): 34.6% | inhibition at 10 µg/mL (HepG2 [6]; drug 0.01 mg/ml): 42.2% | inhibition at 20 µg/mL (HepG2 [6]; drug 0.02 mg/ml): 57.3% | inhibition at 40 µg/mL (HepG2 [6]; drug 0.04 mg/ml): 66.6% | inhibition at 80 µg/mL (HepG2 [6]; drug 0.08 mg/ml): 87.9% | drug concentration in tumor cells (Caco2 [7]): 2730 ± 40 ng/mL | AST [8]: 989.25 ± 145.74 U/L | CK [8]: 1160.50 ± 164.82 U/L | CK-Mb [8]: 797.00 ± 155.90^a U/L | GSH-PX [8]: 515.57 ± 146.57^a U | LDH [8]: 6958.50 ± 991.50 U/L | MDA [8]: 3.97 ± 0.50 nmol/mg | SOD [8]: 135.63 ± 16.22^a U/mg | PLT [9]: 72.53 ± 25.46 ^a ×10^9/l | RBC [9]: 7.55 ± 1.33 ×10^12/l | WBC [9]: 4.90 ± 3.60 ×10^9/l | median survival time (HepG2 HCC; HepG2, low dose group): 26.5 days | deaths during treatment (HepG2 HCC; HepG2, low dose group, 5W): 3 deaths and 1 death respectively in the treatment of 3W+ and 4W+ | Tumor volume, Before treatment (HepG2 HCC; HepG2 HCC mice, baseline): 0.32 ± 0.30 cm^2 | Tumor volume (third column, no sub-head; actual volume at end of experiment) (HepG2 HCC; HepG2 HCC mice, low dose): 0.50 ± 0.46 cm^2 | Tumor volume, After treatment (HepG2 HCC; HepG2 HCC mice, low dose: Doxorubicin 40 mg/m^2, conjugate 200 mg/m^2): 0.64 ± 0.61 cm^2 | Tumor weight (HepG2 HCC; HepG2 HCC mice, low dose, end of treatment): 1.66 ± 0.98 g | Mice weight, Before treatment (HepG2 HCC; mouse, in vivo): 21.23 ± 4.97 g | median survival time (Bel-7402 HCC; Bel-7402, high dose group): 25.5 days | deaths during treatment (Bel-7402 HCC; Bel-7402, high dose group, 5W): 1 death and 2 deaths and 1 death in the treatment of 2W+, 3W+ and 4W+ respectively | Tumor volume, Before treatment (Bel-7402 HCC; Bel-7402 HCC mice, baseline): 0.38 ± 0.28 cm^2 | Tumor volume (third column, no sub-head; actual volume at end of experiment) (Bel-7402 HCC; Bel-7402 HCC mice, high dose): 0.27 ± 0.16 cm^2 | Tumor volume, After treatment (Bel-7402 HCC; Bel-7402 HCC mice, high dose: Doxorubicin 60 mg/m^2, conjugate 300 mg/m^2): 0.42 ± 0.33 cm^2 | Tumor weight (Bel-7402 HCC; Bel-7402 HCC mice, high dose, end of treatment): 1.30 ± 0.41 g | Inhibition rate (Bel-7402 HCC; Bel-7402 HCC mice, high dose): 32.35% | Inhibition rate (Bel-7402 HCC; Bel-7402 HCC mice, high dose, listed as C): 32.35^c % | Mice weight, Before treatment (Bel-7402 HCC; mouse, in vivo): 23.15 ± 1.60 g | PLT [10]: 81.33 ± 27.50^a ×10^9/l | RBC [10]: 6.90 ± 2.32 ×10^12/l | WBC [10]: 3.66 ± 2.58^a ×10^9/l
